Laboratory results: paper PMC5510889 (Metallomics : integrated biometal science, 2017)

Tests used:
IsdG [1] = target: T1, IsdG (Staphylococcus aureus, UniProt Q7A649); conditions: cited from earlier work
IsdG [2] = target: T1, IsdG; assay: Apomyoglobin competition assay; format: binding; conditions: ratio of koff values, IsdG–heme vs IsdI–heme
IsdG [3] = target: T1, IsdG; assay: UV/Vis absorption-detected heme titration; format: binding
IsdG [4] = target: T1, IsdG; assay: Fluorescence-detected heme titration; format: binding
IsdI [5] = target: T2, IsdI (Staphylococcus aureus, UniProt Q7A827); assay: Fluorescence-detected heme titration; format: binding
T2 sequence (Q7A827 whole entry): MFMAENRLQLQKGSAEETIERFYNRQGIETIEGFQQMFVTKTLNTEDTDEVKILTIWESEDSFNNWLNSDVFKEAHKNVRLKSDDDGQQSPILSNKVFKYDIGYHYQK

myoglobin = conditions: cited from earlier work
IsdI [6] = target: T2, IsdI; conditions: UV/Vis titration fitted to Michaelis-Menten model; cited from earlier work
IsdG [7] = target: T1, IsdG; conditions: UV/Vis titration fitted to Michaelis-Menten model; cited from earlier work
IsdI [8] = target: T2, IsdI; assay: UV/Vis absorption-detected heme titration; format: binding

T1 sequence (Q7A649 whole entry): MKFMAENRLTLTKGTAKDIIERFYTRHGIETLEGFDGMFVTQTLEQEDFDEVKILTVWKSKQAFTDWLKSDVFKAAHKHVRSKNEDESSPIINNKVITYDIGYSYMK

[N-]=[N+]=[N-] [azide]
mode of inhibition of IsdG (IsdG [1]): uncompetitive inhibitors

C=CC1=C(C)c2cc3[n-]c(cc4nc(cc5[n-]c(cc1n2)c(C)c5CCC(=O)O)C(CCC(=O)O)=C4C)c(C)c3C=C.[Fe+3] [heme]
rate of heme dissociation from IsdG–heme slower than from IsdI–heme (IsdG [2]): four-fold | Kd (IsdG [3]): 0.034 ± 0.02 µM | Kd (IsdG [4]): 0.0014 ± 0.0006 µM | heme binding to IsdG tighter than heme binding to IsdI (IsdG [4]; ratio of fluorescence Kd values, IsdG vs IsdI): nine-fold | Kd (IsdI [5]): 0.0129 ± 0.0013 µM | Kd for heme dissociation from myoglobin (myoglobin): femtomolar | Kd for heme, IsdI, as reported in the literature (IsdI [6]): micromolar | Kd for heme, IsdG, as reported in the literature (IsdG [7]): micromolar | Kd (IsdI [8]): 0.015 ± 0.01 µM
